Results from paper PMC3492761 (Journal of medicinal chemistry, 2012).

Assays:
[1] = system: A/Brisbane/10/2007 (H3N2); settings: read-out: EC50, cytopathic effect inhibition
[2] = system: A/WSN/33 (H1N1) influenza virus; settings: mouse, in vivo, po
[3] = male (rat, dog), human, microsomes, 1 h

SMILES	EC50 [1] [µM]	also measured
CCC(CC)O[C@@H]1C=C(P(=O)(O)O)C[C@H](N)[C@H]1NC(C)=O [3a, tamiphosphor]	> 10	
CCOP(=O)(OCC)C1=C[C@@H](OC(CC)CC)[C@H](NC(C)=O)[C@@H](N)C1 [3b, tamiphosphor diethyl ester]		protection of infected mice [2]: No significant protection
CCOP(=O)(O)C1=C[C@@H](OC(CC)CC)[C@H](NC(C)=O)[C@@H](N)C1 [3c, tamiphosphor monoethyl ester]	> 10	
CCC(CC)O[C@@H]1C=C(P(=O)(O)O)C[C@H](NC(=N)N)[C@H]1NC(C)=O [4a, guanidino-tamiphosphor]	> 10	
CCOP(=O)(O)C1=C[C@@H](OC(CC)CC)[C@H](NC(C)=O)[C@@H](NC(=N)N)C1 [4c, guanidino-tamiphosphor monoethyl ester]	> 10	
Cc1ncc2n1-c1ccc(Cl)cc1C(c1ccccc1F)=NC2 [midazolam]		metabolized [3]: 65–100%
C[C@]12CC[C@H]3[C@@H](CCC4=CC(=O)CC[C@@]43C)[C@@H]1CC[C@@H]2O [testosterone]		metabolized [3]: 65–100%
